Assay results taken from US20240294881A1, “CELL CULTURE SUPPLEMENT FOR PRODUCING STEM CELLS, AND METHOD FOR PRODUCING STEM CELLS” (OPTICELL, INC, priority 2021, published 2024).

Experiments:
Assay type in all cases: cell-based
[1] = system: healthy human neonatal fibroblasts; experiment: Real-time PCR of undifferentiated stem cell marker genes in neonatal fibroblast spheroids (6-well flat-bottom); conditions: day 20 of 3D spheroid culture, coated 6-well flat-bottom; control without supplement = 1.0; ΔΔCt, β-actin
Protocol: 2 mL of an aqueous solution of the polypeptide represented by formula (1) (0.125%) (cell culture supplement) was added to a commercial polystyrene-made 6-well flat-bottom culture vessel (CellBIND, Corning) and allowed to stand at 4° C. for 24 hours.
Thereafter, the excess cell culture supplement was removed, and the remaining solution was dried in a dryer at 37° C. for 96 hours to complete coating treatment with the cell culture supplement. Healthy human neonatal fibroblasts (ATCC PCS-201-010, primary dermal fibroblasts, neonatal, referred to as “fibroblasts” below) were maintained and cultured in a serum-free medium (Promo Cell; fibroblast basal medium, basic-FGF 5 ng/mb and insulin 2.5 μg/mL). The fibroblasts floating in 2 mL of the medium were seeded in the culture vessel coated with the cell culture supplement at 2×10^6 cells/well and cultured at 37° C. under 5% CO2 conditions. For a control, fibroblasts were seeded in a culture vessel of the same type with no coating applied with the cell culture supplement (2×10^6 cells/well). Observation was performed with a microscope on day 2 and day 20 after the start of culture to capture images of spheroid formation (FIG. 5). […]
Specifically, a NucleoZOL reagent (Macherey-Nagel) was added to each type of cells, and total-RNA was extracted according to the protocol recommended by the reagent manufacturer and used as template RNA for detecting undifferentiated stem cell markers. For real-time PCR analysis, PCR probes from QuantiFast Probe RT-PCR Kits (QTAGEN; No. 204454) and TagMan Gene Expression Assay Probe (Thermo Fisher Scientific) were used. […] In the gene expression analysis, relative quantification was performed according to the ΔΔCt method (Delta Delta Ct method). The results of analysis according to the ΔΔCt method show the amount of a gene expressed by control cells under the conditions of “no cell culture supplement, flat-bottom 2D growth, day 0” as “1.0” in relative terms, and the increase rate of the expression level on day 20 of spheroid proliferation was determined by comparison (FIG. 6).

[2] = system: healthy human neonatal fibroblasts; experiment: Spheroid culture of healthy human neonatal fibroblasts in coated 96-well round-bottom vessel, microscope observation; conditions: PS 96-well round-bottom vessel coated with 0.125% solution; 4×10^4 cells/well
Protocol: To observe the spheroid formation and stem cell induction in healthy human neonatal fibroblasts over time, culture was performed by using a 96-well round-bottom culture vessel. An aqueous solution of the polypeptide represented by formula (1) (0.125%) (cell culture supplement) was added to a commercial polystyrene-made 96-well round-bottom culture vessel (Nunclon Delta 96U Bottom, Thermo Fisher Scientific) at 100 μL/well and allowed to stand at 4° C. for 24 hours. Thereafter, the excess cell culture supplement was removed, and the remaining solution was dried in a dryer at 37° C. for 96 hours to complete coating treatment with the cell culture supplement. Fibroblasts were maintained and cultured in a serum-free medium (Promo Cell; fibroblast basal medium, basic-FGF 5 ng/ml and insulin 2.5 μg/mL). The fibroblasts floating in the medium were seeded in the culture vessel coated with the cell culture supplement at 4×10^4 cells/well/100 μL and cultured at 37° C. under 5% CO2 conditions.

[3] = system: healthy human adult skin fibroblasts; experiment: Spheroid culture of healthy human adult skin fibroblasts, microscope observation; conditions: 96-well round-bottom vessel coated with 0.125% solution; uncoated control grew 2D
Protocol: An aqueous solution of the polypeptide represented by formula (1) (0.125%) (cell culture supplement) was added to a commercial polystyrene-made 96-well round-bottom culture vessel (Nuncion Delta 96U Bottom, Thermo Fisher Scientific) and allowed to stand at 4° C. for 24 hours. The cell culture supplement solution was then removed and the coated cell culture supplement was dried in a dryer at 37° C. for 96 hours to complete the cell culture supplement coating process. Healthy human adult skin fibroblasts (Lonza, normal human dermal fibroblast-adult, referred to as “adult skin fibroblasts” below) were maintained and cultured in a serum-free medium (Fujifilm Wako Pure Chemical Corporation; DMEM/F12 medium, human serum albumin recombinant 0.5 mg/mL, human transferrin recombinant 10 μg/mL, basic-FGF 5 ng/ml, and insulin 2.5 μg/mL). Adult skin fibroblasts floating in 100 μL of the medium were seeded in the 96-well round-bottom culture vessel coated with the cell culture supplement at 2×10^4 cells/well and cultured at 37° C. under 5% CO2 conditions.

[4] = system: HOS-143B (human osteosarcoma); experiment: Study on plate shape: spheroid formation; conditions: 96-well plate coated with 0.125% solution, 2 days of culture
Protocol: (§1) 200 μl of an aqueous solution of the polypeptide represented by formula (1) (0.125%) (cell culture supplement) was added to each well of a commercial 96-well flat-bottom plate (Thermo Fisher Scientific), a V-bottom plate (Thermo Fisher Scientific), and a U-bottom plate (Thermo Fisher Scientific) and allowed to stand at 4° C. for 16 hours.
(§2) Thereafter, the excess cell culture supplement was removed, and the remaining solution was dried under reduced pressure at room temperature for 24 hours.
(§3) Hela cells (human cervical epithelial cancer, JCRB9004, National Institutes of Biomedical Innovation, Health and Nutrition) and HOS-143B (human osteosarcoma) were seeded at 2,000 cells/well in a culture plate coated with the cell culture supplement and cultured at 37° C. under 5% CO2 conditions. The medium used was DMEM+10% FBS.

[5] = system: Hela cells (human cervical epithelial cancer); experiment: Study on plate shape: spheroid formation; conditions: 96-well plate coated with 0.125% solution, 2 days of culture
Protocol: as §1, §2, §3

(Pro-Hyp-Gly)n [cell culture supplement]
NANOG gene expression level (increase vs control) [1]: 9.1 fold
OCT4 gene expression level (increase vs control) [1]: 5.1 fold
SOX2 gene expression level (increase vs control) [1]: 34.4 fold
spheroid formation [2]: formed a single spheroid
spheroid formation [3]: formed spheroids
spheroid formation, U-bottom plate [4]: several spheroids
spheroid formation, V-bottom plate [4]: a single spheroid
spheroid formation, flat-bottom plate [4]: Numerous small spheroids
spheroid formation, U-bottom plate [5]: several spheroids
spheroid formation, V-bottom plate [5]: a single spheroid
spheroid formation, flat-bottom plate [5]: Numerous small spheroids
